Laboratory results reported in patent US4161598A, “1-Oxygenated-2,6-methano-3-benzazocines” (Sterling Drug Inc., priority 1977, dated 1979).
Counter-ions that a name gives are not always drawn. Like-named read-outs stand apart in the source and are kept apart here.

How the values were obtained:
phenazocine = experiment: Tail-flick Antagonist Test against phenazocine; conditions: for ED50: Rattus norvegicus, sc, 10 min, read-out: Subcutaneous AD50 (95% Confidence Limits) Against Phenazocine
acetylcholine = experiment: Anti-acetylcholine Writhing Test; format: in vivo, mice; conditions: subcutaneous; for ED50: Mus musculus, sc, 20 min, read-out: Subcutaneous ED50 (95% Confidence Limits)
Procedure: This response has also been called writhing. Animals are pretreated with test compounds (20 minutes for both subcutaneous and oral routes) and observed for two minutes immediately following the administration of acetylcholine. Mice not responding during the two-minute observation period are scored protected while those responding one or more times are scored not protected. Test compounds are screened at doses of 75 and 25 mg./kg. subcutaneously or 150 and 50 mg./kg. orally. […] ED50 values for active compounds are estimated by probit analysis of quantal scores for 4 or more dosage levels using 15 animals per dose. Vehicle-pretreated control animals are tested concurrently with each run of 15 experimental animals.

Row | Compound | ED50 (phenazocine) | ED50 (acetylcholine; form tested not given) | further results
1 | CC(=O)Oc1ccc2c(c1)[C@]1(C)CCN(CC3CC3)[C@H](C2=O)[C@@H]1C (relative stereo) [Example 2, 1,2,3,4,5,6-hexahydro-1-oxo-3-cyclopropylmethyl-8-acetoxy-6(eq),11(ax)-dimethyl-2,6-methano-3-benzazocine hydrochloride] | 3 mg/kg | – | ED50 (acetylcholine; hydrochloride salt): 0.14 mg/kg
2 | Cc1ccc(C(=O)Oc2ccc3c(c2)[C@]2(C)CCN(CC4CC4)[C@H](C3=O)[C@@H]2C)cc1 (relative stereo) [Example 12, 1,2,3,4,5,6-hexahydro-1-oxo-3-cyclopropylmethyl-8-(p-toluyloxy)-6(eq),11(ax)-dimethyl-2,6-methano-3-benzazocine] | – | 0.06 mg/kg | –
3 | CC[C@]12CCN(CC3CC3)[C@H](C(=O)c3ccc(O)cc31)[C@H]2C (relative stereo) [Example 30C, 1,2,3,4,5,6-hexahydro-1-oxo-3-cyclopropylmethyl-8-hydroxy-6(eq)-ethyl-11(eq)-methyl-2,6-methano-3-benzazocine hydrochloride] | 4.2 mg/kg | 2.1 mg/kg | –
4 | CC(C)C(=O)Oc1ccc2c(c1)[C@]1(C)CCN(CC3CC3)[C@H](C2=O)[C@@H]1C (relative stereo) [Example 6, 1,2,3,4,5,6-hexahydro-1-oxo-3-cyclopropylmethyl-8-isobutyryloxy-6(eq),11(ax)-dimethyl-2,6-methano-3-benzazocine] | 7 mg/kg | 0.09 mg/kg | –
5 | COc1ccc(C(=O)Oc2ccc3c(c2)[C@]2(C)CCN(CC4CC4)[C@H](C3=O)[C@@H]2C)cc1 (relative stereo) [Example 10, 1,2,3,4,5,6-hexahydro-1-oxo-3-cyclopropylmethyl-8-(p-anisoyloxy)-6(eq),11(ax)-dimethyl-2,4-methano-3-benzazocine] | – | 0.1 mg/kg | –
6 | C=CCN1CC[C@@]2(C)c3cc(O)ccc3C(=O)[C@@H]1[C@@H]2C (relative stereo) [Example 16, 1,2,3,4,5,6-hexahydro-1-oxo-3-allyl-8-hydroxy-6(eq),11(ax)-dimethyl-2,6-methano-3-benzazocine] | 2.2 mg/kg | 1.5 mg/kg | –
7 | COc1cccc(C(=O)Oc2ccc3c(c2)[C@]2(C)CCN(CC4CC4)[C@H](C3=O)[C@@H]2C)c1 (relative stereo) [Example 11, 1,2,3,4,5,6-hexahydro-1-oxo-3-cyclopropylmethyl-8-(m-anisoyloxy)-6(eq),11(ax)-dimethyl-2,6-methano-3-benzazocine hydrochloride] | – | 0.1 mg/kg | –
8 | CC[C@H]1[C@H]2C(=O)c3ccc(O)cc3[C@]1(CC)CCN2CC1CC1 (relative stereo) [Example 31C, 1,2,3,4,5,6-hexahydro-1-oxo-3-cyclopropylmethyl-8-hydroxy-6(eq),11(ax)-diethyl-2,6-methano-3-benzazocine] | 0.48 mg/kg | – | ED50 (acetylcholine; methanesulfonate salt): 0.15 mg/kg
9 | CCCN1CC[C@@]2(CC)c3cc(O)ccc3C(=O)[C@@H]1[C@@H]2C (relative stereo) [Example 36, 1,2,3,4,5,6-hexahydro-3-propyl-1-oxo-8-hydroxy-6(eq)-ethyl-11(ax)-methyl-2,6-methano-3-benzazocine methanesulfonate] | 6.2 mg/kg | 1 mg/kg | –
10 | C=CCN1CC[C@@]2(CC)c3cc(O)ccc3C(=O)[C@@H]1[C@@H]2C (relative stereo) [Example 37, 1,2,3,4,5,6-hexahydro-3-allyl-1-oxo-8-hydroxy-6(eq)-ethyl-11(ax)-methyl-2,6-methano-3-benzazocine] | 6.3 mg/kg | 2.3 mg/kg | –
11 | CCCC(=O)Oc1ccc2c(c1)[C@]1(C)CCN(CC3CC3)[C@H](C2=O)[C@@H]1C (relative stereo) [Example 4, 1,2,3,4,5,6-hexahydro-1-oxo-3-cyclopropylmethyl-8-butyryloxy-6(eq),11(ax)-dimethyl-2,6-methano-3-benzazocine hydrochloride] | 6.2 mg/kg | 0.14 mg/kg | –
12 | C[C@H]1[C@H]2C(=O)c3ccc(OC(=O)c4ccc(C(F)(F)F)cc4)cc3[C@]1(C)CCN2CC1CC1 (relative stereo) [Example 13, 1,2,3,4,5,6-hexahydro-1-oxo-3-cyclopropylmethyl-8-(p-trifluoromethylbenzoyloxy)-6(eq),11(ax)-dimethyl-2,6-methano-3-benzazocine] | – | 0.05 mg/kg | –
13 | CC[C@@]12CCN(CC3CC3)[C@@H](C1)C(=O)c1ccc(O)cc12 (relative stereo) [Example 28C, 1,2,3,4,5,6-hexahydro-1-oxo-3-cyclopropylmethyl-8-hydroxy-6(eq)-ethyl-2,6-methano-3-benzazocine hydrochloride] | 14 mg/kg | 0.38 mg/kg | –
14 | CCCN1CC[C@@]2(C)c3cc(O)ccc3C(=O)[C@@H]1[C@@H]2C (relative stereo) [Example 15, 1,2,3,4,5,6-hexahydro-1-oxo-3-propyl-8-hydroxy-6(eq),11(ax)-dimethyl-2,6-methano-3-benzazocine] | 2.8 mg/kg | 3.2 mg/kg | –
15 | C[C@H]1[C@H]2C(=O)c3ccc(OC(=O)CC(C)(C)C)cc3[C@]1(C)CCN2CC1CC1 (relative stereo) [Example 8, 1,2,3,4,5,6-hexahydro-1-oxo-3-cyclopropylmethyl-8-(3,3-dimethylbutanoyloxy)-6(eq),11(ax)-dimethyl-2,6-methano-3-benzazocine] | – | 0.08 mg/kg | –
16 | C[C@@H]1[C@@H]2C(=O)c3ccc(O)cc3[C@@]1(C)CCN2CC1CC1 [Example 26D, dextro-rotatory 2S,6R,11R-1,2,3,4,5,6-hexahydro-1-oxo-3-cyclopropylmethyl-8-hydroxy-6(eq),11(ax)-dimethyl-2,6-methano-3-benzazocine] | – | – | narcotic antagonist effect against phenazocine (phenazocine; 10 mg./kg. subcutaneously, methanesulfonic salt, in words): inactive; % effect against phenazocine (phenazocine; 80 mg./kg. subcutaneously, methanesulfonic salt): 32%; % effect (acetylcholine; 25 mg./kg., methanesulfonate salt): 33%; % effect (acetylcholine; 75 mg./kg., methanesulfonate salt): 93%
17 | CC(C)CC(=O)Oc1ccc2c(c1)[C@]1(C)CCN(CC3CC3)[C@H](C2=O)[C@@H]1C (relative stereo) [Example 7, 1,2,3,4,5,6-hexahydro-1-oxo-3-cyclopropylmethyl-8-isovaleryloxy-6(eq),11(ax)-dimethyl-2,6-methano-3-benzazocine] | 5.2 mg/kg | 0.06 mg/kg | –
18 | C[C@H]1[C@H]2C(=O)c3ccc(OC(=O)c4ccccc4)cc3[C@]1(C)CCN2CC1CC1 (relative stereo) [Example 9, 1,2,3,4,5,6-hexahydro-1-oxo-3-cyclopropylmethyl-8-benzoyloxy-6(eq),11(ax)-dimethyl-2,6-methano-3-benzazocine] | 14 mg/kg | 0.07 mg/kg | –
19 | C[C@@H]1[C@H]2C(=O)c3ccc(O)cc3[C@]1(C)CCN2CC1CC1 (relative stereo) [Example 27, 1,2,3,4,5,6-hexahydro-1-oxo-3-cyclopropylmethyl-8-hydroxy-6(eq),11(eq)-dimethyl-2,6-methano-3-benzazocine hydrochloride hemiethanolate] | 2.8 mg/kg | 30 mg/kg | –
20 | C[C@H]1[C@H]2C(=O)c3ccc(OC(=O)C(C)(C)C)cc3[C@]1(C)CCN2CC1CC1 (relative stereo) [Example 5, 1,2,3,4,5,6-hexahydro-1-oxo-3-cyclopropylmethyl-8-pivalyloxy-6(eq),11(ax)-dimethyl-2,6-methano-3-benzazocine] | 38 mg/kg | 0.06 mg/kg | –
21 | CCC[C@]12CCN(CC3CC3)[C@H](C(=O)c3ccc(O)cc31)[C@@H]2C (relative stereo) [Example 32C, 1,2,3,4,5,6-hexahydro-1-oxo-3-cyclopropylmethyl-8-hydroxy-6(eq)-propyl-11(ax)-methyl-2,6-methano-3-benzazocine] | – | 1.5 mg/kg | –
